According to the supplement of paper PMC6045584:
± gives the standard deviation of the averaged measurements.

Legend:
[1] = compound: CNCc1ccc(-c2[nH]c3cc(F)cc4c3c2CCNC4=O)cc1; assay: surviving fraction relative to DMSO-only wells; higher = less growth inhibition; details: exposure time: 5 days
How it was run: (§1)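 Tumour cell lines in log phase were plated in 384-well plates at 250–500 cells per well, then, after 24 hours, exposed continuously for five days to inhibitors at 0.5, 1, 5, 10, 50, 100, 500 and 1000 nM. Viability came from CellTiter-Glo luminescence, and surviving fraction is that signal normalised to the median of DMSO-only wells. Plates were read after 10 minutes at room temperature, and each line, screened three times, was kept only when replicate Pearson r was >0.7 and median Z' was >0.3.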

[2] = compound: T1, NS(=O)(=O)OC[C@@H]1C[C@@H](n2ccc3c(N[C@H]4CCc5ccccc54)ncnc32)C[C@@H]1O [MLN-4924]; assay: as above; details: exposure time: 5 days
How it was run: as §1

[3] = compound: T2, CN1CCN(c2nc(C3=C(c4c[nH]c5ccccc45)C(=O)NC3=O)c3ccccc3n2)CC1 [SOTRASTAURIN/AEB071]; assay: as above; details: exposure time: 5 days
How it was run: as §1

[4] = compound: T3, COc1cc2c(Oc3ccc(NC(=O)C4(C(=O)Nc5ccc(F)cc5)CC4)cc3F)ccnc2cc1OCCCN1CCOCC1 [FORETINIB]; assay: as above; details: exposure time: 5 days
How it was run: as §1

[5] = compound: T4, Cc1nc(Nc2ncc(C(=O)Nc3c(C)cccc3Cl)s2)cc(N2CCN(CCO)CC2)n1 [DASATINIB]; assay: as above; details: exposure time: 5 days
How it was run: as §1

[6] = compound: T5, C[C@@H](Oc1cc(-c2cnn(C3CCNCC3)c2)cnc1N)c1c(Cl)ccc(F)c1Cl [CRIZOTINIB]; assay: as above; details: exposure time: 5 days
How it was run: as §1

[7] = compound: T6, Cn1nnc2c(C(N)=O)ncn2c1=O [TEMOZOLOMIDE]; assay: as above; details: exposure time: 5 days
How it was run: as §1

[8] = compound: CNCc1ccc(-c2[nH]c3cc(F)cc4c3c2CCNC4=O)cc1; assay: area under dose-response curve of surviving fraction (unscaled, Aref=0) (surviving fraction x log10(nM)); higher = more resistant; details: exposure time: 5 days; dose range 0.5-1000 nM
How it was run: (§2)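 Each tumour cell line was screened three times in 384-well plates, receiving eight inhibitor concentrations from 0.5 to 1000 nM for five days. CellTiter-Glo luminescence gave viability, normalised to DMSO-only wells. Using the drc R package, surviving fractions were fitted with 3-parameter logistic dose-response curves, and the unscaled activity area over log10 dose (Aref = 0) was taken as the area under the curve.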

[9] = compound: T1, MLN-4924; assay: as above; details: exposure time: 5 days; dose range 0.5-1000 nM
How it was run: as §2

[10] = compound: T2, SOTRASTAURIN/AEB071; assay: as above; details: exposure time: 5 days; dose range 0.5-1000 nM
How it was run: as §2

[11] = compound: T3, FORETINIB; assay: as above; details: exposure time: 5 days; dose range 0.5-1000 nM
How it was run: as §2

[12] = compound: T4, DASATINIB; assay: as above; details: exposure time: 5 days; dose range 0.5-1000 nM
How it was run: as §2

[13] = compound: T5, CRIZOTINIB; assay: as above; details: exposure time: 5 days; dose range 0.5-1000 nM
How it was run: as §2

[14] = compound: T6, TEMOZOLOMIDE; assay: as above; details: exposure time: 5 days; dose range 0.5-1000 nM
How it was run: as §2

[15] = compound: COc1cc2ncnc(Nc3ccc(F)c(Cl)c3)c2cc1NC(=O)/C=C/CN1CCCCC1; assay: as above; details: exposure time: 5 days; dose range 0.5-1000 nM
How it was run: as §2

[16] = compound: CNC(=O)c1cc(Oc2ccc(NC(=O)Nc3ccc(Cl)c(C(F)(F)F)c3)cc2)ccn1 [SORAFENIB]; assay: as above; details: exposure time: 5 days; dose range 0.5-1000 nM
How it was run: as §2

[17] = compound: CCn1c(C(=O)N(C2CC2)C2CC2)cc2c3c(ncn3C)c(Nc3cc(C)n(C)n3)nc21; assay: as above; details: exposure time: 5 days; dose range 0.5-1000 nM
How it was run: as §2

[18] = compound: O=C(c1cc(Cc2n[nH]c(=O)c3ccccc23)ccc1F)N1CCN(C(=O)C2CC2)CC1 [OLAPARIB]; assay: as above; details: exposure time: 5 days; dose range 0.5-1000 nM
How it was run: as §2

[19] = compound: C[C@]12CC[C@H](O)CC1=CC[C@@H]1[C@@H]2CC[C@]2(C)C(c3cccnc3)=CC[C@@H]12 [ABIRATERONE]; assay: as above; details: exposure time: 5 days; dose range 0.5-1000 nM
How it was run: as §2

[20] = compound: Oc1nc(-c2ccc(C(F)(F)F)cc2)nc2c1CSCC2 [XAV-939]; assay: as above; details: exposure time: 5 days; dose range 0.5-1000 nM
How it was run: as §2

[21] = compound: C[C@@H](Oc1cc(-c2cnn(C3CCNCC3)c2)cnc1N)c1c(Cl)ccc(F)c1Cl; assay: as above; details: exposure time: 5 days; dose range 0.5-1000 nM
How it was run: as §2

CCK81 LARGE INTESTINE was tested, and the surviving fraction ([1]; 0.5 nM) was 0.829 ± 0.06, the surviving fraction ([1]; 1 nM) was 0.766 ± 0.13 and the surviving fraction ([1]; 5 nM) was 0.861 ± 0.24. For the same test system, the surviving fraction ([1]; 10 nM) was 0.719 ± 0.12, the surviving fraction ([1]; 50 nM) was 0.789 ± 0.041 and the surviving fraction ([1]; 100 nM) was 0.803 ± 0.058. The surviving fraction ([1]; 500 nM) was 0.914 ± 0.053, the surviving fraction ([1]; 1000 nM) was 0.783 ± 0.023 and the surviving fraction ([2]; 0.5 nM) was 0.87 ± 0.11. It also gave a surviving fraction ([2]; 1 nM) of 0.814 ± 0.12, a surviving fraction ([2]; 5 nM) of 0.704 ± 0.15 and a surviving fraction ([2]; 10 nM) of 0.794 ± 0.088. It also gave a surviving fraction ([2]; 50 nM) of 0.867 ± 0.07, a surviving fraction ([2]; 100 nM) of 0.831 ± 0.059 and a surviving fraction ([2]; 500 nM) of 0.567 ± 0.066. The surviving fraction ([2]; 1000 nM) was 0.473 ± 0.065, the surviving fraction ([3]; 0.5 nM) was 0.811 ± 0.12 and the surviving fraction ([3]; 1 nM) was 0.829 ± 0.13. The surviving fraction ([3]; 5 nM) was 0.892 ± 0.075, the surviving fraction ([3]; 10 nM) was 0.814 ± 0.079 and the surviving fraction ([3]; 50 nM) was 0.917 ± 0.0085. It also gave a surviving fraction ([3]; 100 nM) of 0.866 ± 0.038, a surviving fraction ([3]; 500 nM) of 0.943 ± 0.088 and a surviving fraction ([3]; 1000 nM) of 0.83 ± 0.064. It also gave a surviving fraction ([4]; 0.5 nM) of 0.867 ± 0.085, a surviving fraction ([4]; 1 nM) of 0.729 ± 0.084 and a surviving fraction ([4]; 5 nM) of 0.719 ± 0.059. The surviving fraction ([4]; 10 nM) was 0.726 ± 0.13, the surviving fraction ([4]; 50 nM) was 0.793 ± 0.065 and the surviving fraction ([4]; 100 nM) was 0.757 ± 0.025. For the same test system, the surviving fraction ([4]; 500 nM) was 0.559 ± 0.043, the surviving fraction ([4]; 1000 nM) was 0.338 ± 0.083 and the surviving fraction ([5]; 0.5 nM) was 0.942 ± 0.19. For the same test system, the surviving fraction ([5]; 1 nM) was 0.774 ± 0.035, the surviving fraction ([5]; 5 nM) was 0.741 ± 0.13 and the surviving fraction ([5]; 10 nM) was 0.744 ± 0.059. For the same test system, the surviving fraction ([5]; 50 nM) was 0.577 ± 0.1, the surviving fraction ([5]; 100 nM) was 0.411 ± 0.1 and the surviving fraction ([5]; 500 nM) was 0.0847 ± 0.02. For the same test system, the surviving fraction ([5]; 1000 nM) was 0.0473 ± 0.012, the surviving fraction ([6]; 1 nM) was 0.854 ± 0.084 and the surviving fraction ([6]; 5 nM) was 0.776 ± 0.15. The surviving fraction ([6]; 10 nM) was 0.788 ± 0.087, the surviving fraction ([6]; 50 nM) was 0.749 ± 0.11 and the surviving fraction ([6]; 100 nM) was 0.718 ± 0.028. It also gave a surviving fraction ([6]; 500 nM) of 0.62 ± 0.12, a surviving fraction ([6]; 1000 nM) of 0.315 ± 0.053 and a surviving fraction ([7]; 0.5 nM) of 0.766 ± 0.075. It also gave a surviving fraction ([7]; 1 nM) of 0.729 ± 0.06, a surviving fraction ([7]; 5 nM) of 0.744 ± 0.041 and a surviving fraction ([7]; 10 nM) of 0.771 ± 0.024. It also gave a surviving fraction ([7]; 50 nM) of 0.775 ± 0.083, a surviving fraction ([7]; 100 nM) of 0.745 ± 0.048 and a surviving fraction ([7]; 500 nM) of 0.789 ± 0.033. For the same test system, the surviving fraction ([7]; 1000 nM) was 0.817 ± 0.055, the “area under dose-response curve” value [8] was 2.66 and the “area under dose-response curve” value [9] was 2.47. The “area under dose-response curve” value [10] was 2.85, the “area under dose-response curve” value [11] was 2.29 and the “area under dose-response curve” value [12] was 1.86. The “area under dose-response curve” value [13] was 2.36 and the “area under dose-response curve” value [14] was 2.52.
In the case of HS57T LUNG, the “area under dose-response curve” value [8] is reported as 3.17, the “area under dose-response curve” value [15] is reported as 3.17 and the “area under dose-response curve” value [9] is reported as 2.38. For the same test system, the “area under dose-response curve” value [16] was 3.44, the “area under dose-response curve” value [17] was 3.21 and the “area under dose-response curve” value [11] was 3.04. The “area under dose-response curve” value [18] was 3.54, the “area under dose-response curve” value [12] was 1.87 and the “area under dose-response curve” value [19] was 3.71. For the same test system, the “area under dose-response curve” value [20] was 3.24, the “area under dose-response curve” value [13] was 3.12 and the “area under dose-response curve” value [14] was 3.27. For the same test system, the “area under dose-response curve” value [21] was 2.97.
